Experimental data published in US20250376473A1, “PRMTS INHIBITOR AND USE THEREOF” (Cytosinlab Therapeutics Co., Ltd., priority 2022, published 2025).
Where two headings read alike, the source gives them in different places.

Key:
[1] = tested on: HCT116-MTAP-KO cells (HCT116 MTAP null); experiment: Proliferation inhibition of HCT116 MTAP-KO cells in vitro (CellTiter Glo); format: cell-based; details: 6 days, 9 concentrations starting from 3 μM, read-out: Cell proliferation inhibition rate HCT116 MTAP null IC50 (nm)
From the text: (§1) Biological Test Example 2 Proliferation Inhibition of HCT116 and HCT116 MTAP-KO Cells in Vitro
(§2) HCT116 cell line was purchased from the Chinese Academy of Sciences Cell Bank, and the MTAP gene was knocked out by CRISPR/Cas9 technology to obtain HCT116-MTAP-KO cell line.
(§3) McCoy's 5A medium (Gibco, catalog No. 16600082), fetal bovine serum (Gibco, catalog No. 10099141C), penicillin-streptomycin double antibody (Gibco, catalog No. 15140122), pancreatic enzyme (Gibco, catalog No. 25200056), CellTiter Glo assay kit (Promega, catalog No. G7572), 384-well transparent flat-bottomed black walled cell culture plate (Corning, catalog No. 3764), ultra micro sampler (Tecan, catalog No.D300e), Multimode reader (Biotek, catalog No. SynergyHTX)
(§4) 1. Cell culture: HCT116 and HCT116-MTAP-KO cells were cultured in McCoy'5A medium+10% fetal bovine serum+1% penicillin-streptomycin double antibody; to ensure that they were always in the logarithmic growth phase and the cell viability greater than 95%.
(§5) 2. Compound concentration gradient preparation: The compound to be tested was added to a 384-well plate using an ultra micro sampler, starting from 30 μM (HCT116 cells) or 3 μM (HCT116-MTAP-KO cells), and diluted with DMSO at 3 times for a total of 9 concentrations and set up three duplicate wells.
(§6) 3. Treatment of cells with compounds: Trypsin-digested HCT116 or HCT116-MTAP-KO cell suspension was added to the 384-well plates spotted with the compounds to be tested at 40 μL per well, i.e., 100 cells per well, and the final concentration of DMSO was 0.4%. The cell culture plate was incubated at 37° C. in a 5% CO2 incubator for 6 days.
(§7) 4. Detection: 20 μL of CellTiter Glo reagent was added to each well of the cell culture plate and incubated at room temperature for 30 minutes. A multimode reader was used to detect the luminescence signal at […].
(§8) The data was fitted with GraphPad Prism 8.0 software using a four parameter inhibitor-reaction model to obtain the IC50 value (half inhibitory concentration) of the test compounds.

HCT116 MTAP WT cells = experiment: Proliferation inhibition of HCT116 cells in vitro (CellTiter Glo); format: cell-based; details: 6 days, 9 concentrations starting from 30 μM, read-out: Cell proliferation inhibition rate HCT116 MTAP WT IC50 (nm)
From the text: as §1, §2, §3, §4, §5, §6, §7, §8

| Compound | IC50 ([1]; HCT116-MTAP null, 144 h) [nM] | IC50 (HCT116 MTAP WT cells; Homo sapiens, HCT-116, 144 h) [nM] | IC50 [1] [nM] | IC50 (HCT116 MTAP WT cells) [nM] |
| --- | --- | --- | --- | --- |
| Cc1ncc2c(N)nc3cc(F)c(C(=O)N(Cc4ccc(C(F)(F)F)cn4)c4cn(C)nc4C(F)(F)F)cc3n12 [Example 178] | < 100 | 1000 to 10000 |  |  |
| Cc1cn(C)nc1N(Cc1ccc(C(F)(F)F)cn1)C(=O)c1cc2c(cc1F)nc(N)c1cnc(C)n12 [Example 179] | < 100 | 1000 to 10000 |  |  |
| Cc1c(N(Cc2ccc(C(F)(F)F)cn2)C(=O)c2cc3c(cc2F)nc(N)c2cnc(C)n23)cnn1CC(F)F [Example 180] | < 100 | 1000 to 10000 |  |  |
| Cc1nn(C)cc1N(Cc1ccc(C(F)(F)F)nc1)C(=O)c1cc2c(cc1F)nc(N)c1cnc(C)n12 [Example 182] | < 100 | 1000 to 10000 |  |  |
| Cc1nn(C)cc1N(Cc1ccc(C(F)(F)F)cn1)C(=O)c1cc2c(cn1)nc(N)c1cnc(C)n12 [Example 183] | < 100 | 1000 to 10000 |  |  |
| CCc1nn(C)cc1N(Cc1ccc(C(F)(F)F)cn1)C(=O)c1cc2c(cc1F)nc(N)c1c(C)ncn12 [Example 184] | < 100 | < 100 |  |  |
| Cc1ccc(N(Cc2ccc(C(F)(F)F)cn2)C(=O)c2cc3c(cc2F)nc(N)c2cnc(C)n23)c(C)n1 [Example 187] | < 100 | 1000 to 10000 |  |  |
| Cc1cc2nc(N)c3cnc(C)n3c2cc1C(=O)N(Cc1ccc(C(F)(F)F)cn1)c1cn(C)nc1C [Example 188, 4-Amino-N-(1,3-dimethyl-1H-pyrazol-4-yl)-1,7-dimethyl-N-((5-(trifluoromethyl)pyridin-2-yl)methyl)imidazolo[1,5-a]quinoxalin-8-carboxamide] | < 100 | 1000 to 10000 |  |  |
| Cc1nn(C)cc1N(Cc1ccc(OC2CC2)cn1)C(=O)c1cc2c(cn1)nc(N)c1cnc(C)n12 [Example 189] | < 100 | 100 to 1000 |  |  |
| Cc1nn(C)cc1N(Cc1ccc(C(F)(F)F)cn1)C(=O)c1ccc2nc(N)c3c(C)nc(C)n3c2c1 [Example 190] | 100 to 1000 | 1000 to 10000 |  |  |
| CCn1cc(N(Cc2ccc(C(F)(F)F)cn2)C(=O)c2cc3c(cn2)nc(N)c2cnc(C)n23)c(C)n1 [Example 192] | < 100 | 1000 to 10000 |  |  |
| Cc1nn(C)cc1N(Cc1ccc(C(F)(F)F)nn1)C(=O)c1cc2c(cc1F)nc(N)c1c(C)ncn12 [Example 193] | < 100 | 100 to 1000 |  |  |
| Cc1cc(C)c(N(Cc2ccc(C(F)(F)F)cn2)C(=O)c2cc3c(cc2F)nc(N)c2cnc(C)n23)cn1 [Example 194] | < 100 | 1000 to 10000 |  |  |
| Cc1nn(C)cc1N(Cc1ccc(OC2COC2)cn1)C(=O)c1cc2c(cc1F)nc(N)c1c(C)ncn12 [Example 195] | < 100 | 100 to 1000 |  |  |
| Cc1cnc(C)c(N(Cc2ccc(C(F)(F)F)cn2)C(=O)c2cc3c(cc2F)nc(N)c2cnc(C)n23)c1 [Example 196] | < 100 | 1000 to 10000 |  |  |
| COc1ccc(CN(C(=O)c2cc3c(cc2F)nc(N)c2c(C)ncn23)c2cn(C)nc2C)nn1 [Example 197] | < 100 | 100 to 1000 |  |  |
| CCn1cc(N(Cc2ccc(OC3CC3)cn2)C(=O)c2cc3c(cn2)nc(N)c2cnc(C)n23)c(C)n1 [Example 199] | < 100 | 1000 to 10000 |  |  |
| Cc1ncc2c(N)nc3cc(F)c(C(=O)N(Cc4ccc(C(F)(F)F)cn4)c4ccnn4C)cc3n12 [Example 200] | < 100 | 100 to 1000 |  |  |

| Compound | IC50 ([1]; HCT116-MTAP null, 144 h) [nM] | IC50 (HCT116 MTAP WT cells; Homo sapiens, HCT-116, 144 h) [nM] | IC50 [1] [nM] | IC50 (HCT116 MTAP WT cells) [nM] |
| --- | --- | --- | --- | --- |
| Cc1ncc2c(N)nc3cc(F)c(C(=O)N(Cc4ccc(C(F)(F)F)cn4)c4c(F)cnn4C)cc3n12 [Example 201] | < 100 | 100 to 1000 |  |  |
| CCn1cc(N(Cc2ccc(C(F)(F)F)nn2)C(=O)c2cc3c(cc2F)nc(N)c2cnc(C)n23)c(C)n1 [Example 202] | 100 to 1000 | 1000 to 10000 |  |  |
| Cc1nn(C)cc1N(Cc1ncc(C(F)(F)F)s1)C(=O)c1cc2c(cc1F)nc(N)c1cnc(C)n12 [Example 203] | < 100 | 1000 to 10000 |  |  |
| Cc1ncc2c(N)nc3cc(F)c(C(=O)N(Cc4ccc(OC5CC5)cn4)c4ccnn4C)cc3n12 [Example 205] | < 100 | 100 to 1000 |  |  |
| CCn1nccc1N(Cc1ccc(C(F)(F)F)cn1)C(=O)c1cc2c(cc1F)nc(N)c1cnc(C)n12 [Example 206] | < 100 | 100 to 1000 |  |  |
| Cc1ncc2c(N)nc3cc(F)c(C(=O)N(Cc4ccc(F)cn4)c4ccnn4C)cc3n12 [Example 207] | < 100 | 1000 to 10000 |  |  |
| Cc1nn(C)cc1N(Cc1ccc(C(F)(F)F)cn1)Cc1cc2c(cc1F)nc(N)c1cnc(C)n12 [Example 208] | < 100 | 1000 to 10000 |  |  |
| Cc1ncc2c(N)nc3cc(F)c(C(=O)N(Cc4ccc(C(F)(F)F)cn4)c4cnnn4C)cc3n12 [Example 209] | < 100 | 1000 to 10000 |  |  |
| Cc1cn(C)c(N(Cc2ccc(C(F)(F)F)cn2)C(=O)c2cc3c(cc2F)nc(N)c2cnc(C)n23)n1 [Example 210, 4-Amino-N-(1,4-dimethyl-1H-imidazol-2-yl)-7-fluoro-1-methyl-N-((5-(trifluoromethyl)pyridin-2-yl)methyl)imidazolo[1,5-a]quinoxalin-8-carboxamide] | < 100 | 1000 to 10000 |  |  |
| Cc1ncc2c(N)nc3cnc(C(=O)N(Cc4ccc(C(F)(F)F)cn4)c4ccnn4C)cc3n12 [Example 211] | < 100 | 1000 to 10000 |  |  |
| CCOc1ccc(CN(C(=O)c2cc3c(cc2F)nc(N)c2cnc(C)n23)c2ccnn2C)nc1 [Example 212] | < 100 | 1000 to 10000 |  |  |
| Cc1ncc2c(N)nc3cc(F)c(C(=O)N(Cc4cnn(C(F)(F)F)c4)c4ccnn4C)cc3n12 [Example 213] |  |  | < 100 | 1000 to 10000 |
| Cc1ccc(CN(C(=O)c2cc3c(cc2F)nc(N)c2cnc(C)n23)c2ccnn2C)nc1 [Example 214] | < 100 | 1000 to 10000 |  |  |
| Cc1ncc2c(N)nc3cc(F)c(C(=O)N(Cc4ccc(OC5CC5)nn4)c4ccnn4C)cc3n12 [Example 215] | < 100 | 1000 to 10000 |  |  |
| Cc1ncc2c(N)nc3cc(F)c(C(=O)N(Cc4ccc(OC5COC5)cn4)c4ccnn4C)cc3n12 [Example 217] | < 100 | 1000 to 10000 |  |  |
| Cc1ncc2c(N)nc3cc(F)c(C(=O)N(Cc4ccc(N5CC(F)(F)C5)cn4)c4ccnn4C)cc3n12 [Example 219] | < 100 | 1000 to 10000 |  |  |
| COCCn1cc(CN(C(=O)c2cc3c(cc2F)nc(N)c2cnc(C)n23)c2ccnn2C)cn1 [Example 221] | 100 to 1000 | 1000 to 10000 |  |  |
| Cc1ncc2c(N)nc3cc(F)c(C(=O)N(Cc4ccc(C(F)(F)F)nn4)c4ccnn4C)cc3n12 [Example 223] | < 100 | 1000 to 10000 |  |  |
